# Measurements: patent US20100061928A1, “LABELLED ANALOGUES OF HALOBENZAMIDES AS RADIOPHARMACEUTICALS” (Institut National De La Sante et De La Recherche Medicale …, priority 2006, published 2010)
# Where a name gives a salt, the structure may show the parent alone.
# What was measured:
# [1] = tested on: grafted B16 F0 murine melanoma tumour; assay: Biodistribution of the ^125I-labelled molecules in the melanoma-bearing mouse (autoradiography of whole-body sections); settings: for tumour concentration, times higher than with BZA: at 72 hours (FIG. 1B); for Biodistribution, Mean, B 16: B 16 tumour
# [2] = Elimination of the molecules: cumulative urinary and faecal excretion 0-72 hours; format: in vivo, mouse; settings: for Faecal elimination 0-72 hours (Faeces) / Urinary and faecal elimination 0-72 hours (Total) / Urinary elimination 0-72 hours (Urine): cumulative excretion 0-72 hours; for Faecal elimination 0-72 hours (Faeces) / Urinary elimination 0-72 hours (Urine): mice in metabolic cages; for Urinary and faecal elimination 0-72 hours (Total): urine + faeces; for elimination route (in words): urinary versus faecal, 0-72 hours
# tumour = assay: Dosimetry with regard to the tumour (MIRD programme, extrapolated to ^131I); settings: for Effective period: extrapolated to 131I labelling; for Biological period: from biodistribution data
# [3] = 1 H after i.v. administration, ^125I-labelled compound
# [4] = 3 H after i.v. administration, ^125I-labelled compound
# [5] = 6 H after i.v. administration, ^125I-labelled compound
# [6] = 24 H after i.v. administration, ^125I-labelled compound
# [7] = 72 H after i.v. administration, ^125I-labelled compound
smiles,measurement,setting,value
"CCN(CC)CCNC(=O)c1ccc(I)nc1 [compound 7, N-(2-diethylaminoethyl)-6-iodonicotinamide dihydrochloride]","Concentration of radioactivity, B 16 (tumour), Mean",[1]; [3],15.49 % ID/g
same,"Concentration of radioactivity, GB (gall bladder), Mean",[1]; [3],8.68 % ID/g
same,"Concentration of radioactivity, Ic (intestinal contents), Mean",[1]; [3],13.44 % ID/g
same,"Concentration of radioactivity, SV (seminal vesicles), Mean",[1]; [3],6.79 % ID/g
same,"Concentration of radioactivity, Sc (stomach contents), Mean",[1]; [3],34.80 % ID/g
same,"Concentration of radioactivity, blood (measured in the heart cavity), Mean",[1]; [3],6.67 % ID/g
same,"Concentration of radioactivity, brain, Mean",[1]; [3],0.64 % ID/g
same,"Concentration of radioactivity, kidney, Mean",[1]; [3],6.08 % ID/g
same,"Concentration of radioactivity, liver, Mean",[1]; [3],5.14 % ID/g
same,"Concentration of radioactivity, lungs, Mean",[1]; [3],7.59 % ID/g
same,"Concentration of radioactivity, muscle (skeletal muscle), Mean",[1]; [3],1.48 % ID/g
same,"Concentration of radioactivity, pancreas, Mean",[1]; [3],3.94 % ID/g
same,"Concentration of radioactivity, spleen, Mean",[1]; [3],5.44 % ID/g
same,"Concentration of radioactivity, testicles, Mean",[1]; [3],4.11 % ID/g
same,"Concentration of radioactivity, thyroid, Mean",[1]; [3],25.29 % ID/g
same,"Concentration of radioactivity, uvea (pigmented tissues of the eye), Mean",[1]; [3],16.66 % ID/g
same,"Concentration of radioactivity, B 16 (tumour), Mean",[1]; [4],9.27 % ID/g
same,"Concentration of radioactivity, GB (gall bladder), Mean",[1]; [4],6.78 % ID/g
same,"Concentration of radioactivity, Ic (intestinal contents), Mean",[1]; [4],4.94 % ID/g
same,"Concentration of radioactivity, SV (seminal vesicles), Mean",[1]; [4],3.78 % ID/g
same,"Concentration of radioactivity, Sc (stomach contents), Mean",[1]; [4],42.71 % ID/g
same,"Concentration of radioactivity, blood (measured in the heart cavity), Mean",[1]; [4],4.22 % ID/g
same,"Concentration of radioactivity, brain, Mean",[1]; [4],0.22 % ID/g
same,"Concentration of radioactivity, kidney, Mean",[1]; [4],3.26 % ID/g
same,"Concentration of radioactivity, liver, Mean",[1]; [4],3.01 % ID/g
same,"Concentration of radioactivity, lungs, Mean",[1]; [4],3.96 % ID/g
same,"Concentration of radioactivity, pancreas, Mean",[1]; [4],2.53 % ID/g
same,"Concentration of radioactivity, spleen, Mean",[1]; [4],2.68 % ID/g
same,"Concentration of radioactivity, testicles, Mean",[1]; [4],2.43 % ID/g
same,"Concentration of radioactivity, thyroid, Mean",[1]; [4],59.09 % ID/g
same,"Concentration of radioactivity, uvea (pigmented tissues of the eye), Mean",[1]; [4],12.69 % ID/g
same,"Concentration of radioactivity, B 16 (tumour), Mean",[1]; [5],6.97 % ID/g
same,"Concentration of radioactivity, GB (gall bladder), Mean",[1]; [5],4.90 % ID/g
same,"Concentration of radioactivity, Ic (intestinal contents), Mean",[1]; [5],2.98 % ID/g
same,"Concentration of radioactivity, SV (seminal vesicles), Mean",[1]; [5],3.55 % ID/g
same,"Concentration of radioactivity, Sc (stomach contents), Mean",[1]; [5],50.21 % ID/g
same,"Concentration of radioactivity, blood (measured in the heart cavity), Mean",[1]; [5],3.71 % ID/g
same,"Concentration of radioactivity, brain, Mean",[1]; [5],0.12 % ID/g
same,"Concentration of radioactivity, kidney, Mean",[1]; [5],3.05 % ID/g
same,"Concentration of radioactivity, liver, Mean",[1]; [5],2.09 % ID/g
same,"Concentration of radioactivity, lungs, Mean",[1]; [5],3.21 % ID/g
same,"Concentration of radioactivity, muscle (skeletal muscle), Mean",[1]; [5],0.53 % ID/g
same,"Concentration of radioactivity, pancreas, Mean",[1]; [5],2.27 % ID/g
same,"Concentration of radioactivity, spleen, Mean",[1]; [5],2.35 % ID/g
same,"Concentration of radioactivity, testicles, Mean",[1]; [5],2.01 % ID/g
same,"Concentration of radioactivity, thyroid, Mean",[1]; [5],7.92 % ID/g
same,"Concentration of radioactivity, uvea (pigmented tissues of the eye), Mean",[1]; [5],11.50 % ID/g
same,"Concentration of radioactivity, B 16 (tumour), Mean",[1]; [6],2.69 % ID/g
same,"Concentration of radioactivity, Sc (stomach contents), Mean",[1]; [6],1.46 % ID/g
same,"Concentration of radioactivity, thyroid, Mean",[1]; [6],111.30 % ID/g
same,"Concentration of radioactivity, uvea (pigmented tissues of the eye), Mean",[1]; [6],6.07 % ID/g
same,"Concentration of radioactivity, B 16 (tumour), Mean",[1]; [7],0.87 % ID/g
same,"Concentration of radioactivity, kidney, Mean",[1]; [7],1.09 % ID/g
same,"Concentration of radioactivity, thyroid, Mean",[1]; [7],178.80 % ID/g
same,"Concentration of radioactivity, uvea (pigmented tissues of the eye), Mean",[1]; [7],2.54 % ID/g
same,Faecal elimination 0-72 hours (Faeces),[2],5.3%
same,Urinary and faecal elimination 0-72 hours (Total),[2],72.6%
same,Urinary elimination 0-72 hours (Urine),[2],67.3%
same,elimination route (in words),[2],predominantly in the urine
same,Effective period,tumour,17.3 h
same,Biological period,tumour,19.0 hours
"CCN(CC)CCNC(=O)c1cccc2c(=O)c3cc(I)ccc3[nH]c12 [compound 84, N-(2-diethylaminoethyl)-9,10-dihydro-7-iodo-9-oxoacridine-4-carboxamide hydrochloride]","tumour concentration, times higher than with BZA",[1],22 times
same,Faecal elimination 0-72 hours (Faeces),[2],38.4%
same,Urinary and faecal elimination 0-72 hours (Total),[2],48.8%
same,Urinary elimination 0-72 hours (Urine),[2],10.4%
same,Effective period,tumour,112.5 h
same,Biological period,tumour,268.9 hours
"CCN(CC)CCNC(=O)c1cnc2cc(I)ccc2n1.Cl.Cl [compound 46, N-(2-diethylaminoethyl)-6-iodoquinoxaline-2-carboxamide dihydrochloride]","Biodistribution, Mean, B 16",[1]; 1 H,17.00
same,"Biodistribution, Mean, B 16",[1]; 3 H,27.68
same,"Biodistribution, Mean, B 16",[1]; 6 H,40.70
same,"Biodistribution, Mean, B 16",[1]; 24 H,21.67
same,"Biodistribution, Mean, B 16",[1]; 72 H,12.45
same,"Biodistribution, Mean, BM","[1]; BM, 1 H",4.58
same,"Biodistribution, Mean, GB",[1]; 6 H,33.38
same,"Biodistribution, Mean, Ic",[1]; 1 H,15.22
same,"Biodistribution, Mean, Ic",[1]; 3 H,14.63
same,"Biodistribution, Mean, Ic",[1]; 6 H,17.45
same,"Biodistribution, Mean, Sc",[1]; 1 H,24.33
same,"Biodistribution, Mean, Sc",[1]; 3 H,20.33
same,"Biodistribution, Mean, Sc",[1]; 6 H,21.09
same,"Biodistribution, Mean, Sc",[1]; 72 H,2.23
same,"tumour concentration, times higher than with BZA",[1],16 times
same,"Biodistribution, Mean, blood",[1]; 1 H,3.45
same,"Biodistribution, Mean, blood",[1]; 3 H,2.91
same,"Biodistribution, Mean, blood",[1]; 6 H,3.09
same,"Biodistribution, Mean, brain",[1]; 1 H,2.34
same,"Biodistribution, Mean, brain",[1]; 3 H,1.03
same,"tumour concentration, % of the injected dose per gram of tumour",[1]; from the first hour,17 % ID/g
same,"Biodistribution, Mean, kidney",[1]; 1 H,16.46
same,"Biodistribution, Mean, kidney",[1]; 3 H,9.30
same,"Biodistribution, Mean, kidney",[1]; 6 H,7.69
same,"Biodistribution, Mean, liver",[1]; 1 H,13.18
same,"Biodistribution, Mean, liver",[1]; 3 H,8.87
same,"Biodistribution, Mean, liver",[1]; 6 H,7.53
same,"Biodistribution, Mean, liver",[1]; 24 H,1.49
same,"Biodistribution, Mean, lungs",[1]; 1 H,7.83
same,"Biodistribution, Mean, lungs",[1]; 3 H,5.68
same,"Biodistribution, Mean, lungs",[1]; 6 H,4.46
same,"Biodistribution, Mean, muscle",[1]; 1 H,2.04
same,"Biodistribution, Mean, muscle",[1]; 3 H,0.86
same,"Biodistribution, Mean, muscle",[1]; 6 H,0.87
same,"Biodistribution, Mean, pancreas",[1]; 1 H,7.60
same,"Biodistribution, Mean, spleen",[1]; 1 H,14.21
same,"Biodistribution, Mean, spleen",[1]; 3 H,4.69
same,"Biodistribution, Mean, thyroid",[1]; 3 H,39.76
same,"Biodistribution, Mean, thyroid",[1]; 6 H,83.77
same,"Biodistribution, Mean, thyroid",[1]; 24 H,94.22
same,"Biodistribution, Mean, uvea",[1]; 1 H,33.82
same,"Biodistribution, Mean, uvea",[1]; 3 H,24.79
same,"Biodistribution, Mean, uvea",[1]; 6 H,32.30
same,"Biodistribution, Mean, uvea",[1]; 24 H,32.44
same,"Biodistribution, Mean, uvea",[1]; 72 H,25.26
same,Faecal elimination 0-72 hours (Faeces),[2],18.0%
same,Urinary and faecal elimination 0-72 hours (Total),[2],88.2%
same,Urinary elimination 0-72 hours (Urine),[2],70.2%
same,elimination route (in words),[2],predominantly in the urine
same,Effective period,tumour,49.3 h
same,Biological period,tumour,66.1 hours
"CCN(CC)CCNC(=O)c1ccc2cncc(I)c2n1.Cl.Cl [compound 142, N-(2-diethylaminoethyl)-8-iodo-1,6-naphthyridine-2-carboxamide dihydrochloride]","Biodistribution, Mean, B 16",[1]; 1 H,23.22
same,"Biodistribution, Mean, B 16",[1]; 3 H,13.87
same,"Biodistribution, Mean, B 16",[1]; 6 H,11.42
same,"Biodistribution, Mean, B 16",[1]; 24 H,8.37
same,"Biodistribution, Mean, B 16",[1]; 72 H,3.31
same,"Biodistribution, Mean, GB",[1]; 3 H,41.51
same,"Biodistribution, Mean, GB",[1]; 6 H,28.67
same,"Biodistribution, Mean, Ic",[1]; 1 H,32.83
same,"Biodistribution, Mean, Ic",[1]; 3 H,47.65
same,"Biodistribution, Mean, Ic",[1]; 6 H,43.48
same,"Biodistribution, Mean, Ic",[1]; 24 H,0.82
same,"Biodistribution, Mean, Sc",[1]; 1 H,17.58
same,"Biodistribution, Mean, Sc",[1]; 3 H,9.76
same,"Biodistribution, Mean, Sc",[1]; 6 H,9.17
same,"Biodistribution, Mean, Sc",[1]; 24 H,0.62
same,"Biodistribution, Mean, Sc",[1]; 72 H,2.13
same,tumour concentration (in words),"[1]; ^125I-labelled compound, melanoma-bearing mouse",very high tumour concentration from one hour
same,"Biodistribution, Mean, blood",[1]; 1 H,2.21
same,"Biodistribution, Mean, blood",[1]; 3 H,1.88
same,"Biodistribution, Mean, blood",[1]; 6 H,1.36
same,"Biodistribution, Mean, brain",[1]; 1 H,0.35
same,"Biodistribution, Mean, kidney",[1]; 1 H,4.01
same,"Biodistribution, Mean, kidney",[1]; 3 H,1.51
same,"Biodistribution, Mean, kidney",[1]; 6 H,1.20
same,"Biodistribution, Mean, liver",[1]; 1 H,3.92
same,"Biodistribution, Mean, liver",[1]; 3 H,2.27
same,"Biodistribution, Mean, liver",[1]; 6 H,1.49
same,"Biodistribution, Mean, lungs",[1]; 1 H,2.36
same,"Biodistribution, Mean, lungs",[1]; 3 H,1.87
same,"Biodistribution, Mean, lungs",[1]; 6 H,1.26
same,"Biodistribution, Mean, muscle",[1]; 1 H,0.86
same,"Biodistribution, Mean, muscle",[1]; 3 H,0.43
same,"Biodistribution, Mean, muscle",[1]; 6 H,0.24
same,"Biodistribution, Mean, pancreas",[1]; 1 H,1.78
same,"Biodistribution, Mean, spleen",[1]; 1 H,5.38
same,"Biodistribution, Mean, spleen",[1]; 3 H,0.93
same,"Biodistribution, Mean, thyroid",[1]; 1 H,20.16
same,"Biodistribution, Mean, thyroid",[1]; 3 H,41.44
same,"Biodistribution, Mean, thyroid",[1]; 6 H,56.95
same,"Biodistribution, Mean, thyroid",[1]; 24 H,115.66
same,"Biodistribution, Mean, uvea",[1]; 1 H,24.11
same,"Biodistribution, Mean, uvea",[1]; 3 H,20.30
same,"Biodistribution, Mean, uvea",[1]; 6 H,13.15
same,"Biodistribution, Mean, uvea",[1]; 24 H,10.00
same,"Biodistribution, Mean, uvea",[1]; 72 H,13.06
same,Faecal elimination 0-72 hours (Faeces),[2],29.4%
same,Urinary and faecal elimination 0-72 hours (Total),[2],98.3%
same,Urinary elimination 0-72 hours (Urine),[2],68.9%
same,Effective period,tumour,26.1 h
same,Biological period,tumour,30.2 hours
